In patent US3998818A, “Trifluoroethylmercapto, -sulfinyl or -sulfonyl acetamidocephalosporins” (SmithKline Corporation, priority 1975, dated 1976):
Converted amounts (≈) assume the structure as drawn.

Columns and labels:
Format in all cases: cell-based
Strep. faecalis HH 34358 = experiment: MIC by standard agar inclusion method (Strep. faecalis HH 34358); details: Enterococcus faecalis, HH34358
Pseudo. aeruginosa HH63 = experiment: MIC by standard agar inclusion method (Pseudo. aeruginosa HH63); details: Pseudomonas aeruginosa
S. aureus SK 23390 = experiment: MIC by standard agar inclusion method (S. aureus SK 23390); details: Staphylococcus aureus, SK23390
Kleb. pneumo. SK 1200 = experiment: MIC by standard agar inclusion method (Kleb. pneumo. SK 1200)
S. aureus Villaluz = experiment: MIC by standard agar inclusion method (S. aureus Villaluz); details: Staphylococcus aureus
E. coli HH 33779 = experiment: MIC by standard agar inclusion method (E. coli HH 33779); details: Escherichia coli, HH33779
S. aureus HH 127 = experiment: MIC by standard agar inclusion method (S. aureus HH 127); details: Staphylococcus aureus, HH127
[1] = tested on: Entero. aerogenes ATCC 13048; experiment: MIC by standard agar inclusion method (Entero. aerogenes ATCC 13048); details: Klebsiella aerogenes, ATCC13048
E. coli SK 12140 = experiment: MIC by standard agar inclusion method (E. coli SK 12140); details: Escherichia coli, SK12140
Kleb. pneumo. SK 4200 = experiment: MIC by standard agar inclusion method (Kleb. pneumo. SK 4200)
[2] = tested on: Serratia marc. ATCC 13880; experiment: MIC by standard agar inclusion method (Serratia marc. ATCC 13880); details: ATCC13880
Salmonella ATCC 12176 = experiment: MIC by standard agar inclusion method (Salmonella ATCC 12176); details: ATCC12176
Shigella paradysentiae = experiment: MIC by standard agar inclusion method (Shigella paradysentiae)

Row | SMILES | MIC (Strep. faecalis HH 34358) | MIC (Pseudo. aeruginosa HH63) | MIC (S. aureus SK 23390) | MIC (Kleb. pneumo. SK 1200) | MIC (S. aureus Villaluz) | MIC (E. coli HH 33779) | MIC (S. aureus HH 127) | MIC [1] | MIC (E. coli SK 12140) | MIC (Kleb. pneumo. SK 4200) | MIC [2] | MIC (Salmonella ATCC 12176) | MIC (Shigella paradysentiae)
1 | Cn1nnnc1SCC1=C(C(=O)O)N2C(=O)C(NC(=O)CS(=O)(=O)CC(F)(F)F)[C@H]2SC1 (some centres unmarked) [Compound 5, 7-Trifluoroethylsulfonylacetamido-3-(1-methyltetrazol-5-ylthiomethyl)-3-cephem-4-carboxylic acid] | > 200 µg/mL | > 200 µg/mL | 3.1 µg/mL (≈ 6 µM) | 3.1 µg/mL (≈ 6 µM) | 200 µg/mL (≈ 387 µM) | 12.5 µg/mL (≈ 24.2 µM) | 3.1 µg/mL (≈ 6 µM) | 50 µg/mL (≈ 96.8 µM) | 6.3 µg/mL (≈ 12.2 µM) | 3.1 µg/mL (≈ 6 µM) | > 200 µg/mL | 6.3 µg/mL (≈ 12.2 µM) | 6.3 µg/mL (≈ 12.2 µM)
2 | Cn1nnnc1SCC1=C(C(=O)O)N2C(=O)C(NC(=O)CSCC(F)(F)F)[C@H]2SC1 (some centres unmarked) [Compound 3, 7-Trifluoroethylmercaptoacetamido-3-(1-methyltetrazol-5-ylthiomethyl)-3-cephem-4-carboxylic acid] | 12.5 µg/mL (≈ 25.8 µM) | > 200 µg/mL | 0.1 µg/mL (≈ 0.206 µM) | 1.6 µg/mL (≈ 3.3 µM) | 12.5 µg/mL (≈ 25.8 µM) | 6.3 µg/mL (≈ 13 µM) | 0.2 µg/mL (≈ 0.413 µM) | 6.3 µg/mL (≈ 13 µM) | 1.6 µg/mL (≈ 3.3 µM) | 3.1 µg/mL (≈ 6.4 µM) | > 200 µg/mL | 0.8 µg/mL (≈ 1.65 µM) | 0.4 µg/mL (≈ 0.826 µM)
3 | Cn1nnnc1SCC1=C(C(=O)O)N2C(=O)C(NC(=O)C[S+]([O-])CC(F)(F)F)[C@H]2SC1 (some centres unmarked) [Compound 4, 7-Trifluoroethylsulfinylacetamido-3-(1-methyltetrazol-5-ylthiomethyl)-3-cephem-4-carboxylic acid] | 100 µg/mL (≈ 200 µM) | > 200 µg/mL | 0.8 µg/mL (≈ 1.6 µM) | 0.4 µg/mL (≈ 0.799 µM) | 100 µg/mL (≈ 200 µM) | 3.1 µg/mL (≈ 6.19 µM) | 1.6 µg/mL (≈ 3.2 µM) | 6.3 µg/mL (≈ 12.6 µM) | 0.8 µg/mL (≈ 1.6 µM) | 0.8 µg/mL (≈ 1.6 µM) | > 200 µg/mL | 1.6 µg/mL (≈ 3.2 µM) | 0.4 µg/mL (≈ 0.799 µM)
4 | Cc1nnc(SCC2=C(C(=O)O)N3C(=O)C(NC(=O)CSCC(F)(F)F)[C@H]3SC2)s1 (some centres unmarked) [Compound 2, 7-Trifluoroethylmercaptoacetamido-3-(5-methyl-1,3,4-thiadiazol-2-ylthiomethyl)-3-cephem-4-carboxylic acid] | 6.3 µg/mL (≈ 12.6 µM) | > 200 µg/mL | 0.1 µg/mL (≈ 0.2 µM) | 3.1 µg/mL (≈ 6.19 µM) | 25 µg/mL (≈ 49.9 µM) | 12.5 µg/mL (≈ 25 µM) | 0.2 µg/mL (≈ 0.4 µM) | 25 µg/mL (≈ 49.9 µM) | 6.3 µg/mL (≈ 12.6 µM) | 6.3 µg/mL (≈ 12.6 µM) | > 200 µg/mL | 6.3 µg/mL (≈ 12.6 µM) | 1.6 µg/mL (≈ 3.2 µM)
5 | CC(=O)OCC1=C(C(=O)O)N2C(=O)C(NC(=O)CSCC(F)(F)F)C2SC1 (centres unmarked) [Compound 1, 7-Trifluoroethylmercaptoacetamidocephalosporanic acid] | 25 µg/mL (≈ 58.4 µM) | > 200 µg/mL | 0.4 µg/mL (≈ 0.934 µM) | 3.1 µg/mL (≈ 7.24 µM) | 25 µg/mL (≈ 58.4 µM) | 50 µg/mL (≈ 117 µM) | 0.4 µg/mL (≈ 0.934 µM) | 50 µg/mL (≈ 117 µM) | 6.3 µg/mL (≈ 14.7 µM) | 6.3 µg/mL (≈ 14.7 µM) | > 200 µg/mL | 6.3 µg/mL (≈ 14.7 µM) | 6.3 µg/mL (≈ 14.7 µM)
